Legend:
Assay type in all cases: biochemical
rat granzyme K = target: T1, rat granzyme K (Rattus norvegicus, UniProt P49864); assay: Inactivation rate of rat granzyme K, incubation method; settings: Table I; 0.1M Hepes, 0.01M CaCl2 pH 7.5, 25° C., 7.1% DMSO, substrate Z--Arg--SBzl; NI = no inhibition after 25 min of incubation
T1 sequence (P49864 26-258): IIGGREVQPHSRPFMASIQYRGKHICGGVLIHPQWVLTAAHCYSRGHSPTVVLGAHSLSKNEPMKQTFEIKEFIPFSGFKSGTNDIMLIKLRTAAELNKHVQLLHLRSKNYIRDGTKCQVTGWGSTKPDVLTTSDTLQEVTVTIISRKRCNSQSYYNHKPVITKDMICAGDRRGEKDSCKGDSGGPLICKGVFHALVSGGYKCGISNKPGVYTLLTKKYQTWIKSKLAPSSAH
Description: (§1) Inactivation rates of serine proteases by aryl diesters of peptidyl derivatives of α-aminoalkylphosphonates were measured by the incubation method. An aliquot of inhibitor (25 or 50 μl) in Me2 SO was added to a buffered enzyme solution (0.01-2.3 μM) to initiate the inactivation. Aliquots (50 μl) were withdrawn at various intervals and the residual enzymatic activity was measured. Me2 SO concentration in the reaction mixture was 8-12% (v/v). A 0.1 M HEPES, 0.01 M CaCl2, pH 7.5 buffer was utilized for trypsin and trypsin-like enzymes. A 0.1 M HEPES, 0.5 M NaCl, pH 7.5, was utilized for the other serine proteases. Peptide thioesters or peptide nitroanilides with the appropriate sequences were used as substrates for various serine proteases. All peptide thioesters hydrolysis rates were measured with the assay mixture containing 4,4'-dithiodipyridine {ε324 =19800 M^-1 cm^-1; Grasetti & Murray, Arch. Biochem. Biophys. 1967, 119, 41-48}. Peptide 4-nitroanilide hydrolysis was measured at 410 nm {ε410 =8800 M^-1 cm^-1; Erlanger et al., Arch. Biochem. Biophys. 1961, 95, 271-278}. First order inactivation rate constants (Kobs) were obtained from plots of In vt /vo vs time, and the correlation coefficients were greater then 0.98.
(§2) ^a Inhibition constants were measured in 0.1M Hepes, 0.01M CaCl2
(§3) pH 7.5 for trypsin, granzymes A, and K, and in 0.1M Hepes, 10% glycerol,
(§4) 10 mM heparin, pH 7.5 for mast cell tryptase, and at 25° C. The
(§5) reaction mixtures contained 2% DMSO for trypsin, 7.6% for granzyme A, and
(§6) 7.1% for granzyme K and tryptase. The substrate was Z--Arg--SBzl for
(§7) granzymes and trypsin, and Z--Arg--SBzl or Z--Lys--SBzl for tryptase in
(§8) the presence of DTNB. The inhibitor # concentration ranged from 0.001 to
(§9) ^b NI, no inhibition after 25 min of incubation with enzyme.

bovine trypsin = target: T2, bovine trypsin (Bos taurus, UniProt P00760); assay: Inactivation rate of bovine trypsin, incubation method; settings: for kobsd /[I] bovine trypsin: Table I, 0.1M Hepes, 0.01M CaCl2 pH 7.5, 25° C., 2% DMSO, substrate Z--Arg--SBzl, NI = no inhibition after 25 min; for kobs /[I] bovine trypsin: Table II, 0.13 μM trypsin, 0.25-42 μM inhibitor, 80 mM Hepes pH 7.5, 1 mM CaCl2, 8% DMSO, 25° C., NI = no inhibition
T2 sequence (P00760 24-246): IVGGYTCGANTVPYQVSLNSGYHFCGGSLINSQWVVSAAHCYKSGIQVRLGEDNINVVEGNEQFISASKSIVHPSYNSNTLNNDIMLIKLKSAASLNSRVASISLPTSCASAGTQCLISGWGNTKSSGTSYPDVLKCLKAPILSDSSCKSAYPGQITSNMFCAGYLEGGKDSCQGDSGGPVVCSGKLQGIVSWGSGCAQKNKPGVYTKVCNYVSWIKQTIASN
Procedure, shortened: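 Incubation method: trypsin pre-incubated with inhibitor (0.25-42 μM) at 25° C in 80 mM Hepes, 1 mM CaCl2, pH 7.5, 8% DMSO; aliquots withdrawn over time for residual activity on Z-Arg-SBzl thioester with DTNB or 4,4'-dithiodipyridine. Pseudo-first-order kobs from ln vt/vo versus time.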

mast cell tryptase = mast cell tryptase (Homo sapiens, UniProt Q15661); assay: Inactivation rate of mast cell tryptase, incubation method; settings: for kobsd /[I] mast cell tryptase: 0.1M Hepes, 10% glycerol, 10 mM heparin, pH 7.5, 25° C., 7.1% DMSO, NI = no inhibition after 25 min of incubation; for kobs /[I] mast cell tryptase: 0.07 μM tryptase, 20-66 μM inhibitor, Hepes pH 7.5, heparin, 9% glycerol, 8% DMSO, 25° C., NI = no inhibition
Procedure, shortened: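 Incubation method at 25 °C: 0.07 μM tryptase with 20–66 μM inhibitor in Hepes pH 7.5 containing heparin, glycerol and DMSO. Aliquots were withdrawn at intervals for residual activity on Z-Arg-SBzl or Z-Lys-SBzl with DTNB. Pseudo-first-order kobs came from ln(vt/v0) versus time.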

human granzyme A = target: T3, human granzyme A (Homo sapiens, UniProt P12544); assay: Inactivation rate of human granzyme A, incubation method; settings: Table I; 0.1M Hepes, 0.01M CaCl2 pH 7.5, 25° C., 7.6% DMSO, substrate Z--Arg--SBzl
T3 sequence (P12544 29-262): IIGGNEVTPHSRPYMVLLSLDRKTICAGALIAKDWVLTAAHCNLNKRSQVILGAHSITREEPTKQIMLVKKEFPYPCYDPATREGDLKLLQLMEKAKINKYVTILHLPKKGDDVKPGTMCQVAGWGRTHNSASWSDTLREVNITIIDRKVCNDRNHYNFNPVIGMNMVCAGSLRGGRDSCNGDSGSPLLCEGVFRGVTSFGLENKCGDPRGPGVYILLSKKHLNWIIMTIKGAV
Procedure, shortened: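 Inhibitor in DMSO added to enzyme (0.01-2.3 μM) in 0.1 M HEPES, 0.01 M CaCl2, pH 7.5, 25° C (DMSO 7.6% for granzyme A, 7.1% for granzyme K); residual activity on Z-Arg-SBzl with DTNB read at intervals. Kobs from ln vt/vo vs time plots.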

human thrombin = target: T4, human thrombin (Homo sapiens, UniProt P00734); settings: Table II; 0.07 μM thrombin, 0.25-42 μM inhibitor, 80 mM Hepes pH 7.5, 428 mM NaCl, 8% DMSO, 25° C.; NI = no inhibition
T4 construct: bovine trypsin, human thrombin
Procedure, shortened: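 Irreversible inactivation followed by incubation method at 25 °C: 0.07 μM thrombin with 0.25–42 μM inhibitor in 80 mM Hepes pH 7.5, 428 mM NaCl, 8% DMSO. Residual activity of withdrawn aliquots measured with thioester or 4-nitroanilide substrates; kobs from pseudo-first-order fits.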

rat granzyme A = assay: Inactivation rate of rat granzyme A, incubation method; settings: Table I; 0.1M Hepes, 0.01M CaCl2 pH 7.5, 25° C., 7.6% DMSO, substrate Z--Arg--SBzl
Description: as §1, §2, §3, §4, §5, §6, §7, §8, §9

Chain of mast cell tryptase (Q15661 31-275): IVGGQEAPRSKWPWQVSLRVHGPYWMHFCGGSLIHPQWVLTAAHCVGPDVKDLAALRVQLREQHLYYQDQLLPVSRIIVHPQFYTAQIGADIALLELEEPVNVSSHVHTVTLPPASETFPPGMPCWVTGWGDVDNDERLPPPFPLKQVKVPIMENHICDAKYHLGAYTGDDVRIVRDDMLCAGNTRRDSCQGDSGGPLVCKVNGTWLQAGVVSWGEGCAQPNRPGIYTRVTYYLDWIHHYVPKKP

Row | Compound | kobsd /[I] rat granzyme K (rat granzyme K) [M⁻¹ s⁻¹] | kobsd /[I] bovine trypsin (bovine trypsin) [M⁻¹ s⁻¹] | kobs /[I] bovine trypsin (bovine trypsin) | kobsd /[I] mast cell tryptase (mast cell tryptase; Table I) [M⁻¹ s⁻¹] | kobs /[I] mast cell tryptase (mast cell tryptase; Table II) [M⁻¹ s⁻¹] | kobsd /[I] human granzyme A (human granzyme A) [M⁻¹ s⁻¹] | kobs /[I] human thrombin (human thrombin) | kobsd /[I] rat granzyme A (rat granzyme A) [M⁻¹ s⁻¹] | % Inh mast cell tryptase (mast cell tryptase; Table I, printed in the kobsd/[I] column) [%] | % Inh mast cell tryptase (mast cell tryptase; Table II, printed in the kobs/[I] column) [%]
1 | CC(NC(=O)OCc1ccccc1)C(=O)NC(C)C(=O)NC(C)C(=O)NC(c1ccc(C(=N)N)cc1)P(=O)(Oc1ccccc1)Oc1ccccc1 (mixture of isomers) [Cbz--Ala--Ala--Ala-(4-AmPhGly)^P (OPh)2] | 7 | 1780 ± 33 | 1,780 ± 33 M^-1 s^-1 | 2 | 2.0 ± 0.2 | 730 ± 15 | 1,290 ± 26 M^-1 s^-1 | 590 ± 17 | – | –
2 | N=C(N)c1ccc(C(NC(=O)C(CCCCN)NC(=O)OCc2ccccc2)P(=O)(Oc2ccccc2)Oc2ccccc2)cc1 (mixture of isomers) [Cbz--Lys-(4-AmPhGly)^P (OPh)2] | 1 | 30 ± 1 | 30 ± 1 M⁻¹ s⁻¹ | – | – | 30 ± 1 | 88 ± 2 M⁻¹ s⁻¹ | 15 ± 1 | – | –
3 | N=C(N)c1ccc(C(NC(=O)C(Cc2ccccc2)NC(=O)OCc2ccccc2)P(=O)(Oc2ccccc2)Oc2ccccc2)cc1 (mixture of isomers) [Cbz--Phe-(4-AmPhGly)^P (OPh)2] | 13 | 17 ± 1 | 17 ± 1 M⁻¹ s⁻¹ | – | – | 14 ± 1 | 20 ± 1 M⁻¹ s⁻¹ | 8 | 5 | 5
4 | N=C(N)c1ccc(C(NS(=O)(=O)c2cccc3ccccc23)P(=O)(Oc2ccccc2)Oc2ccccc2)cc1 (racemic) [1-NpSO2-(4-AmPhGly)^P (OPh)2] | – | 170 ± 34 | 170 ± 34 M⁻¹ s⁻¹ | 10 | 10 ± 1 | 330 ± 26 | 24 ± 3 M⁻¹ s⁻¹ | 30 ± 1 | – | –
5 | N=C(N)c1ccc(C(NC(=O)Oc2cccc3ccccc23)P(=O)(Oc2ccccc2)Oc2ccccc2)cc1 (stereo not shown) [1-Naphthyloxycarbonyl-(4-AmPhGly)^P (OPh)2] | 12 | 30 ± 1 | 30 ± 1 M⁻¹ s⁻¹ | – | – | 160 ± 2 | 30 ± 2 M⁻¹ s⁻¹ | 90 ± 9 | – | –
6 | Cl.N=C(N)c1ccc(C(NC(=O)c2ccccc2Oc2ccccc2)P(=O)(Oc2ccccc2)Oc2ccccc2)cc1 (stereo not shown) [2-Phenoxybenzoyl-(4-AmPhGly)^P (OPh)2, Diphenyl N-(2-Phenoxybenzoyl)amino(4-amidinophenyl)methanephosphonate Hydrochloride] | 1 | 670 ± 53 | 670 ± 53 M⁻¹ s⁻¹ | 0.4 | 0.4 | 540 ± 3 | 270 ± 20 M⁻¹ s⁻¹ | 340 ± 1 | – | –
7 | Cl.N=C(N)c1ccc(C(NC(=O)c2cccc(Oc3ccccc3)c2)P(=O)(Oc2ccccc2)Oc2ccccc2)cc1 (stereo not shown) [3-Phenoxybenzoyl-(4-AmPhGly)^P (OPh)2, Diphenyl N-(3-Phenoxybenzoyl)amino(4-amidinophenyl)methanephosphonate Hydrochloride] | 1 | 50 ± 2 | 50 ± 2 M⁻¹ s⁻¹ | – | – | 340 ± 53 | 200 ± 8 M⁻¹ s⁻¹ | 470 ± 14 | – | –
8 | Cl.N=C(N)c1ccc(C(NC(=O)C=Cc2ccco2)P(=O)(Oc2ccccc2)Oc2ccccc2)cc1 (stereo not shown) [(2-Furyl)acryloyl-(4-AmPhGly)^P (OPh)2, Diphenyl N-(3-(2-Furyl)acryloyl)amino(4-amidinophenyl)methanephosphonate Hydrochloride] | 32 | 360 ± 28 | 360 ± 28 M⁻¹ s⁻¹ | – | – | 1740 ± 41 | 15 ± 1 M⁻¹ s⁻¹ | 1740 ± 237 | – | –
9 | C[C@H](NC(=O)OCc1ccccc1)C(=O)N[C@@H](C)C(=O)NC(c1ccc(C(=N)N)cc1)P(=O)(Oc1ccccc1)Oc1ccccc1 (stereo partly shown) [Cbz--Ala--Ala-(4-AmPhGly)^P (OPh)2] | 5 | 3620 ± 588 | 3,620 ± 588 M^-1 s^-1 | 2 | 2 ± 0 | 820 ± 29 | 3,030 ± 222 M^-1 s^-1 | 480 ± 27 | – | –
10 | Cl.N=C(N)c1ccc(C(NC(=O)/C=C/c2cccnc2)P(=O)(Oc2ccccc2)Oc2ccccc2)cc1 (stereo not drawn) [Diphenyl N-(trans-3-(3-Pyridyl)acryloyl)amino(4-amidinophenyl)methanephosphonate Hydrochloride] | 3 | – | – | – | – | 5 | 2 M⁻¹ s⁻¹ | 1 | – | –
